Laboratory results reported in PMC6037852, “Design of Diarylheptanoid Derivatives as Dual Inhibitors Against Class IIa Histone Deacetylase and β-amyloid Aggregation” (Frontiers in Pharmacology, 2018).

Legend:
HDAC6 = biological target: T1, HDAC6 (Homo sapiens, UniProt Q9UBN7); assay: HDAC fluorometric activity assay, HDAC6
T1 sequence (Q9UBN7 1-1215): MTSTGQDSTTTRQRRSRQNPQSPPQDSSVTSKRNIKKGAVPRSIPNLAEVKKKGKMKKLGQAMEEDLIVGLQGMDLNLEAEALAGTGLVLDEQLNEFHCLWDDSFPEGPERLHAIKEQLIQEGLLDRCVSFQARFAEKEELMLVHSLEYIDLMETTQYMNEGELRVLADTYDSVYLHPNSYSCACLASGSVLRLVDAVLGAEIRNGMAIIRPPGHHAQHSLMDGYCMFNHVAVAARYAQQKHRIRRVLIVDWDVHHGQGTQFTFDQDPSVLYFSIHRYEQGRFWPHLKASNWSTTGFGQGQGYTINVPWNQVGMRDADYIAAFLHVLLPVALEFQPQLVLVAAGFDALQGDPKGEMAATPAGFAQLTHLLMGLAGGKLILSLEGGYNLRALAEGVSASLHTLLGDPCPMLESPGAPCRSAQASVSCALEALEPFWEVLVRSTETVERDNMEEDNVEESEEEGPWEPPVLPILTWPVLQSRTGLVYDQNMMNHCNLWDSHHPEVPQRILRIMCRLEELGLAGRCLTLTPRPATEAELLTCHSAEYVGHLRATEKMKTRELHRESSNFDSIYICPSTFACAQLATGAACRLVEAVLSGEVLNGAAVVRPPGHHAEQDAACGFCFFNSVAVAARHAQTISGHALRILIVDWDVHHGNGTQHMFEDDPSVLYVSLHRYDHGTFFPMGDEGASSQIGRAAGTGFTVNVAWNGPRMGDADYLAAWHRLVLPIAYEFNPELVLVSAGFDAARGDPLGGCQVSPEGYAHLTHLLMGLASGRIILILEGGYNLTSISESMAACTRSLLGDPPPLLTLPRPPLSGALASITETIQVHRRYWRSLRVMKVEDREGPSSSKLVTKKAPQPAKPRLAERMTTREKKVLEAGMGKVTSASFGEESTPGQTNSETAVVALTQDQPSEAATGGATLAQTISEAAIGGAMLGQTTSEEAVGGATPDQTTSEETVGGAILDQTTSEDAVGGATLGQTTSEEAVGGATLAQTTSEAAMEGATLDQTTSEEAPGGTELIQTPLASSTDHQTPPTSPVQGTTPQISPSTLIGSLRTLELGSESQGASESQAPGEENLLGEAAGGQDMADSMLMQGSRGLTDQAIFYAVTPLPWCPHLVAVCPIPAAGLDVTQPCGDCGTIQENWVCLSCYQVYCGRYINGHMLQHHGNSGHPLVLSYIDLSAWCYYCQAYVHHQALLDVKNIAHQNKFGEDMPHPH
Method: Enzyme, inhibitors and substrate were diluted with HDAC buffer (15 mM Tris-HCl pH 8.1, 0.25 mM EDTA, 250 mM NaCl, 10% v:v glycerol). Briefly, 10 μL diluted HDAC, i.e., HeLa nuclear extract (Enzo), HDAC6 (BPS), HDAC4, HDAC5 (BPS), HDAC7 (BPS) and HDAC9 (BPS), as well as 50 μL of testing compounds at different concentrations were added to each well of a 96-well microtiter plate and pre-incubated at 30°C for 5 min. […] The fluorescence in wells without test compounds (0.1% DMSO, negative control) was set as 100% enzymatic activity and the fluorescence in wells with enzyme eliminated was set as 0% enzymatic activity. The fluorescence ratio of test compounds to negative control was defined as percentage of remaining enzyme activity. The IC50 values were calculated by linear regression of the data. All experiments were performed in triplicate.

SH-SY5Y cells [1] = assay: Cytotoxicity effect on SH-SY5Y cells, alamar blue cell viability assay; format: cell-based, human; details: 40 μM, 24 h
Method: (§1) SH-SY5Y cells were kindly provided by Professor Zhi-Hong Wen (National Sun Yat-sen University) and cultured in DMEM/F12 (Gibco, Grand Island, NY, United States) supplemented with 10% heat-inactivated fetal bovine serum and penicillin (100 U/ml)/streptomycin (100 μg/ml) (Invitrogen, Carlsbad, CA, United States) at 37°C in an atmosphere of 5% CO2.
Cell viability was assessed using the alamar blue (7-hydroxy-10-oxidophenoxazin-10-ium-3-one) cell viability assay in 6 replicates as described previously ([Feng et al., 2016]). Briefly, 5 × 10^3 cells/well were seeded in 96-well flat-bottomed plates; 24 h later, cells were treated with compounds or DMSO as control. After 24 h of incubation, the medium was removed, 100 μL medium containing 10 μL of alamar blue was added, and cells were incubated in the 5% CO2 incubator at 37°C for 4 h. Absorbance at 570 nm was determined by Synergy HT microplate reader. The results were averaged over three different independent experiments. The cell viability was also evaluated by trypan blue exclusion test.

SH-SY5Y cells [2] = assay: Neuroprotection against H2O2-induced neurotoxicity on SH-SY5Y cells, MTT assay; format: cell-based; details: Homo sapiens, compound 40 μM, 500 μM H2O2, 3 h, percentage of control, H2O2 alone 34.6%, read-out: Cell viability after H2O2 exposure
Method: as §1
H2O2-induced neurotoxicity on SH-SY5Y cells was used to evaluate the neuroprotective effect ([Rafatian et al., 2012]; [Omar et al., 2017]). Briefly, a density of 2 × 10^4 SH-SY5Y cells were seeded per well in 96-well plates. After 24 h of incubation, the medium was replaced with serum free medium containing H2O2 at a concentration of 500 μM and treated with different concentrations of compounds (40, 20, and 10 μM). SH-SY5Y cells were also cultured without any treatment as control group and results were indicated by percentage of control. After 3 h, cell viability was performed by MTT assay. The cells were treated with MTT (5 mg/ml in PBS) for 4 h at 37°C. The formazan crystals were generated by viable mitochondrial succinate dehydrogenase from MTT. The supernatant was then aspirated off and the formazan crystals were dissolved with DMSO. Absorbance at 570 nm was determined by Tecan Sunrise microplate reader. The trypan blue exclusion test was also used to evaluate the neuroprotection.

Row | IC50 (HDAC6) [µM] | Structure (SMILES) | Cytotoxicity to SH-SY5Y cells (SH-SY5Y cells [1]) | viability at 40 µM (SH-SY5Y cells [2]) [%]
1 | 18.3 ± 0.9 | O=C(/C=C/c1ccc(O)c(O)c1)CCCCc1ccccc1 [Compound 4c] |  | 
2 | > 40 | O=C(/C=C/c1ccc(O)c(Cl)c1)CCCCc1ccccc1 [Compound 4g] |  | 
3 | 26.2 ± 4.3 | O=C(/C=C/c1ccc(O)c(O)c1)c1ccccc1 [Compound 7a] |  | 
4 | > 40 | O=C(/C=C/c1cccc(O)c1)CCCCc1ccccc1 [Compound 4d] |  | 
5 | 37.5 ± 1.6 | O=C(/C=C/c1ccc(O)c(O)c1)CCCc1ccccc1 [Compound 7d] |  | 
6 | > 40 | O=C(/C=C/c1ccc(O)c(Br)c1)CCCCc1ccccc1 [Compound 4h] |  | 
7 | 37.2 ± 1.2 | O=C(/C=C/c1ccc(O)c(O)c1)Cc1ccccc1 [Compound 7b] |  | 
8 | > 40 | O=C(/C=C/c1ccc(O)c(F)c1)CCCCc1ccccc1 [Compound 4f] |  | 
9 | > 40 | O=C(CCc1ccc(O)c(O)c1)Cc1ccccc1 [Compound 8b] |  | 
10 | > 40 | O=C(CCCCc1ccccc1)CCc1cccc(O)c1 [Compound 5d] |  | 
11 | > 40 | COc1cc(CCC(=O)CCCCc2ccccc2)ccc1O [Compound 5i] |  | 
12 | > 40 | O=C(/C=C/c1ccc(O)cc1)CCCCc1ccccc1 [Compound 4b] |  | 
13 | 29.4 ± 1.5 | O=C(/C=C/c1cccc(O)c1O)CCCCc1ccccc1 [Compound 4e] |  | 
14 | > 40 | O=C(CCCc1ccccc1)CCc1ccc(O)c(O)c1 [Compound 8d] |  | 
15 | > 40 | O=C(CCc1ccc(O)c(O)c1)c1ccccc1 [Compound 8a] |  | 
16 | > 40 | O=C(CCCCc1ccccc1)CCc1ccc(O)c(F)c1 [Compound 5f] |  | 
17 | > 40 | O=C(CCCCc1ccccc1)CCc1ccc(O)c(Br)c1 [Compound 5h] |  | 
18 | > 40 | O=C(CCCCc1ccccc1)CCc1ccc(O)c(Cl)c1 [Compound 5g] |  | 
19 | 11.9 ± 0.2 | O=C(/C=C/c1cc(O)c(O)c(O)c1)CCCCc1ccccc1 [Compound 4j] | did not show significant cytotoxicity | 88.3
20 | > 40 | O=C(/C=C/c1ccccc1)CCCCc1ccccc1 [Compound 4a] |  | 
21 | 34.5 ± 2.2 | O=C(/C=C/c1ccc(O)c(O)c1)CCc1ccccc1 [Compound 7c] |  | 
22 | > 40 | O=C(CCCCc1ccccc1)CCc1ccccc1 [Compound 5a] |  | 
23 | > 40 | O=C(CCc1ccccc1)CCc1ccc(O)c(O)c1 [Compound 8c] |  | 
24 | > 40 | O=C(CCCCc1ccccc1)CCc1ccc(O)c(O)c1 [Compound 5c] | did not show significant cytotoxicity | 61.3
25 | > 40 | O=C(/C=C/c1ccc(O)c([N+](=O)[O-])c1)CCCCc1ccccc1 [Compound 4i] |  | 
26 | > 40 | COc1cc(/C=C/C(=O)CCCCc2ccccc2)ccc1O [Compound 4k] |  | 
27 | > 40 | O=C(CCCCc1ccccc1)CCc1cccc(O)c1O [Compound 5e] | did not show significant cytotoxicity | 58.8
28 | > 40 | O=C(CCCCc1ccccc1)CCc1ccc(O)cc1 [Compound 5b] |  | 
